These results are taken from patent US20260022142A1, “MACROCYCLIC IMMUNOMODULATORS” (Bristol-Myers Squibb Company, priority 2022, published 2026).

One may read the pIC50 as the negative decadic logarithm of the IC50, by convention in mol/L.

pIC50: −log10 of the molar value. Numbered stars: 1 amine (or outer) side, 2 acyl side, 3 side chain; on linkers, the order of the positions; unused ones are H or OH. Bridge positions count the residues as written; N and C are the ends. Square brackets hold non-standard residues; d marks the D form. Peptide text beside a SMILES is read from it. * marks the point of attachment. ξ: configuration not given here. X2 = CC(C)C[C@H](N[*:1])C(=O)C[C@H](C(=O)[*:2])C(C)C; Phe(4-COOH) = N[C@@H](Cc1ccc(C(=O)O)cc1)C(=O)O; Bip = N[C@@H](Cc1ccc(-c2ccccc2)cc1)C(=O)O; Bta = N[C@@H](Cc1csc2ccccc12)C(=O)O; hArg = N=C(N)NCCCC[C@H](N)C(=O)O; 4Pal = N[C@@H](Cc1ccncc1)C(=O)O; Cha = N[C@@H](CC1CCCCC1)C(=O)O; Ile(3ξ) = CCC(C)[C@H](N)C(=O)O; aThr = C[C@H](O)[C@H](N)C(=O)O; 12Ado = NCCCCCCCCCCCC(=O)O; dOrn = NCCC[C@@H](N)C(=O)O; dDab = NCC[C@@H](N)C(=O)O; Carboxymethyl = O=C(O)C*; Orn = NCCC[C@H](N)C(=O)O; Aun = NCCCCCCCCCCC(=O)O; Dab = NCC[C@H](N)C(=O)O; AEEA = NCCOCCOCC(=O)O

For the test, the target named is T1, PD-1/PD-L1 interaction (PE-labeled human PD-L1-Ig binding to Jurkat cell line over-expressing human PD-1) (Homo sapiens, UniProt Q15116).
T1 construct: expressed in transfected cells; host or cells: Jurkat
T1 sequence (Q15116 25-288): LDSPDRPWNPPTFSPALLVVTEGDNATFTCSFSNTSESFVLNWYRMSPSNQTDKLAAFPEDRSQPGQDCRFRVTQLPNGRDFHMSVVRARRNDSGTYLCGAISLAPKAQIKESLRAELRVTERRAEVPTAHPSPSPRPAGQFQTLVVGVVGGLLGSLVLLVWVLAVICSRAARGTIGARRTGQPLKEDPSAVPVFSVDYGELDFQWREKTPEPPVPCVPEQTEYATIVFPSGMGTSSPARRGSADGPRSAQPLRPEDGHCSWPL
The test is described as follows: Jurkat-PD-1 Cell Binding High-Content Screening Assay (CBA). Type of test: cell-based. Conditions: Jurkat cell line over-expressing human PD-1; PE-labeled PD-L1-Ig 20 nM final; read-out: Jurkat hPD1-PDL1 IC50. The method, boiled down: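 Binding of fluorescent PD-L1-Ig (phycoerythrin on Ig tag, 20 nM final, 1 h) measured by high-content imaging of fixed, Hoechst-counterstained Jurkat-hPD-1 cells. Compound added 2 h at 37° C beforehand, in DMEM with 10% fetal calf serum.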
On to `CCC(C)[C@@H]1NC(=O)[C@H](Cc2ccc(-c3ccccc3)cc2)NC(=O)[C@H](C(C)C)NC(=O)[C@H](Cc2c[nH]c3ccccc23)NC(=O)[C@H](CC(=O)O)NC(=O)[C@H](Cc2ccc(C(=O)O)cc2)NC(=O)[C@H](Cc2ccncc2)NC(=O)CSC[C@@H](C(=O)N[C@H](CO)C(=O)NCCOCCOCC(=O)N[C@@H](CCCN)C(=O)NCCCCCCCCCCC(=O)O)NC(=O)[C@H](CO)NC(=O)[C@H](C(C)C)NC(=O)[C@H](CC2CCCCC2)NC(=O)[C@H](CCN)NC(=O)[C@@H](CC(C)C)NC(=O)[C@H](CCCN)NC1=O` (stereo partly drawn) [Compound 3059] ({CH2CO}-[4Pal][Phe(4-COOH)]DWV[Bip][Ile(3ξ)][Orn][dL][Dab][Cha]VSC[dS][AEEA][Orn][Aun]-OH; thioether N-14), for which the pIC50 is 7.91.

For `CCC(C)[C@@H]1NC(=O)[C@H](Cc2ccc(-c3ccccc3)cc2)NC(=O)[C@H](C(C)C)NC(=O)[C@H](Cc2c[nH]c3ccccc23)NC(=O)[C@H](CC(=O)O)NC(=O)[C@H](Cc2ccc(OCC(=O)O)cc2)NC(=O)[C@H](CCCCNC(=N)N)NC(=O)CSC[C@@H](C(=O)N[C@H](CO)C(=O)NCCOCCOCC(=O)NCCCCCCCCCCC(=O)O)NC(=O)[C@H](CO)NC(=O)[C@H](C(C)C)NC(=O)[C@H](CC2CCCCC2)NC(=O)[C@H](CCN)NC(=O)[C@@H](CC(C)C)NC(=O)[C@H](CCCN)NC1=O` (stereo partly drawn) [Compound 3060] ({CH2CO}-[hArg]Y(Carboxymethyl)DWV[Bip][Ile(3ξ)][Orn][dL][Dab][Cha]VSC[dS][AEEA][Aun]-OH; thioether N-14), the pIC50 was 7.75.

On to `CC(C)C[C@H]1NC(=O)[C@H](CCCN)NC(=O)[C@H](CCC(=O)O)NC(=O)[C@H](Cc2ccc(-c3ccccc3)cc2)NC(=O)[C@H](C(C)C)NC(=O)[C@H](Cc2c[nH]c3ccccc23)NC(=O)[C@H](CC(=O)O)NC(=O)[C@H](Cc2ccc(C(=O)O)cc2)NC(=O)[C@H](Cc2ccc(OCC(=O)O)cc2)NC(=O)CSC[C@@H](C(=O)NCC(=O)NCCOCCOCC(=O)N[C@@H](CCCN)C(=O)NCCCCCCCCCCCC(=O)O)NC(=O)[C@H](CO)NC(=O)[C@H](C(C)C)NC(=O)[C@H](CC2CCCCC2)NC(=O)[C@H](CCN)NC1=O` [Compound 3062] ({CH2CO}-Y(Carboxymethyl)[Phe(4-COOH)]DWV[Bip]E[Orn][dL][Dab][Cha]VSCG[AEEA][Orn][12Ado]-OH; thioether N-14), for which the pIC50 was 7.48.

Turning to `CC(C)C[C@H]1NC(=O)[C@H](CCCN)NC(=O)[C@H](CCC(=O)O)NC(=O)[C@H](Cc2ccc(-c3ccccc3)cc2)NC(=O)[C@H](C(C)C)NC(=O)[C@H](Cc2c[nH]c3ccccc23)NC(=O)[C@H](CC(=O)O)NC(=O)[C@H](Cc2ccc(C(=O)O)cc2)NC(=O)[C@H](Cc2ccc(OCC(=O)O)cc2)NC(=O)CSC[C@@H](C(=O)N[C@H](CO)C(=O)NCCOCCOCC(=O)N[C@@H](CCCN)C(=O)NCCCCCCCCCCCC(=O)O)NC(=O)[C@H](CO)NC(=O)[C@H](C(C)C)NC(=O)[C@H](CC2CCCCC2)NC(=O)[C@H](CCN)NC1=O` [Compound 3063] ({CH2CO}-Y(Carboxymethyl)[Phe(4-COOH)]DWV[Bip]E[Orn][dL][Dab][Cha]VSC[dS][AEEA][Orn][12Ado]-OH; thioether N-14), the pIC50 was 7.87.

As to `CC(C)C[C@H]1NC(=O)[C@H](CCCN)NC(=O)[C@H](C(C)C)NC(=O)[C@H](Cc2ccc(-c3ccccc3)cc2)NC(=O)[C@H](C(C)C)NC(=O)[C@H](Cc2c[nH]c3ccccc23)NC(=O)[C@H](CC(=O)O)NC(=O)[C@H](Cc2ccc(C(=O)O)cc2)NC(=O)[C@H](Cc2ccc(OCC(=O)O)cc2)NC(=O)CSC[C@@H](C(=O)N[C@H](CO)C(=O)NCCOCCOCC(=O)N[C@@H](CCCN)C(=O)NCCCCCCCCCCCC(=O)O)NC(=O)[C@H](CO)NC(=O)[C@H](C(C)C)NC(=O)[C@H](CC2CCCCC2)NC(=O)[C@H](CCN)NC1=O` [Compound 3064] ({CH2CO}-Y(Carboxymethyl)[Phe(4-COOH)]DWV[Bip]V[Orn][dL][Dab][Cha]VSC[dS][AEEA][Orn][12Ado]-OH; thioether N-14), the pIC50 was 7.49.

As to `CC(C)C[C@H]1NC(=O)[C@H](CCCN)NC(=O)[C@H](C(C)C)NC(=O)[C@H](Cc2ccc(-c3ccccc3)cc2)NC(=O)[C@H](C(C)C)NC(=O)[C@H](Cc2csc3ccccc23)NC(=O)[C@H](CC(=O)O)NC(=O)[C@H](Cc2ccc(OCC(=O)O)cc2)NC(=O)[C@H](CCCCNC(=N)N)NC(=O)CSC[C@@H](C(=O)NCC(=O)NCCOCCOCC(=O)N[C@H](CCCN)C(=O)NCCCCCCCCCCC(=O)O)NC(=O)[C@H](CO)NC(=O)[C@H](C(C)C)NC(=O)[C@H](CC2CCCCC2)NC(=O)[C@H](CCN)NC1=O` [Compound 3065] ({CH2CO}-[hArg]Y(Carboxymethyl)D[Bta]V[Bip]V[Orn][dL][Dab][Cha]VSCG[AEEA][dOrn][Aun]-OH; thioether N-14), the pIC50 was 7.72.

For `CC(C)C[C@H]1NC(=O)[C@H](CCCN)NC(=O)[C@H](C(C)C)NC(=O)[C@H](Cc2ccc(-c3ccccc3)cc2)NC(=O)[C@H](C(C)C)NC(=O)[C@H](Cc2csc3ccccc23)NC(=O)[C@H](CC(=O)O)NC(=O)[C@H](Cc2ccc(OCC(=O)O)cc2)NC(=O)[C@H](CCCCNC(=N)N)NC(=O)CSC[C@@H](C(=O)NCCOCCOCC(=O)N[C@@H](CCCN)C(=O)NCCCCCCCCCCC(=O)O)NC(=O)[C@H](CO)NC(=O)[C@H](C(C)C)NC(=O)[C@H](CC2CCCCC2)NC(=O)[C@H](CCN)NC1=O` [Compound 3066] ({CH2CO}-[hArg]Y(Carboxymethyl)D[Bta]V[Bip]V[Orn][dL][Dab][Cha]VSC[AEEA][Orn][Aun]-OH; thioether N-14), the pIC50 was 7.77.

In the case of `CC(C)C[C@H]1NC(=O)[C@H](CCCN)NC(=O)[C@H](C(C)C)NC(=O)[C@H](Cc2ccc(-c3ccccc3)cc2)NC(=O)[C@H](C(C)C)NC(=O)[C@H](Cc2csc3ccccc23)NC(=O)[C@H](CC(=O)O)NC(=O)[C@H](Cc2ccc(OCC(=O)O)cc2)NC(=O)[C@H](CCCCNC(=N)N)NC(=O)CSC[C@@H](C(=O)N[C@@H](CCCN)C(=O)NCCCCCCCCCCC(=O)O)NC(=O)[C@H](CO)NC(=O)[C@H](C(C)C)NC(=O)[C@H](CC2CCCCC2)NC(=O)[C@H](CCN)NC1=O` [Compound 3067] ({CH2CO}-[hArg]Y(Carboxymethyl)D[Bta]V[Bip]V[Orn][dL][Dab][Cha]VSC[Orn][Aun]-OH; thioether N-14), the pIC50 is 7.39.

Turning to `CC(C)C[C@H]1NC(=O)[C@H](CCCCN)NC(=O)[C@H](C(C)C)NC(=O)[C@H](Cc2ccc(-c3ccccc3)cc2)NC(=O)[C@H](C(C)C)NC(=O)[C@H](Cc2c[nH]c3ccccc23)NC(=O)[C@H](CC(=O)O)NC(=O)[C@H](Cc2ccc(OCC(=O)O)cc2)NC(=O)[C@H](CC(N)=O)NC(=O)CSC[C@@H](C(=O)NCCOCCOCC(=O)N[C@@H](CCCN)C(=O)NCCCCCCCCCCC(=O)O)NC(=O)[C@H](CO)NC(=O)[C@H](C(C)C)NC(=O)[C@H](CC2CCCCC2)NC(=O)[C@H](CCN)NC1=O` [Compound 3070] ({CH2CO}-NY(Carboxymethyl)DWV[Bip]VK[dL][Dab][Cha]VSC[AEEA][Orn][Aun]-OH; thioether N-14), the pIC50 was 8.29.

Regarding `CC(C)C[C@@H]1NC(=O)[C@H](CCN)NC(=O)[C@@H](CC(C)C)NC(=O)[C@H](CCCN)NC(=O)[C@H](C(C)C)NC(=O)[C@H](Cc2ccc(-c3ccccc3)cc2)NC(=O)[C@H](CC(C)C)NC(=O)[C@H](Cc2c[nH]c3ccccc23)NC(=O)[C@H](CC(=O)O)NC(=O)[C@H](Cc2ccc(OCC(=O)O)cc2)NC(=O)[C@H](Cc2ccc(OCC(=O)O)cc2)NC(=O)CSC[C@@H](C(=O)N[C@H](CCN)C(=O)NCCOCCOCC(=O)NCCCCCCCCCCC(=O)O)NC(=O)[C@H](CO)NC(=O)[C@H](C(C)C)CC1=O` [Compound 3071] ({CH2CO}-Y(Carboxymethyl)Y(Carboxymethyl)DWL[Bip]V[Orn][dL][Dab][X2]SC[dDab][AEEA][Aun]-OH; thioether N-13), the pIC50 was 7.76.

For the compound `CC(C)C[C@@H]1NC(=O)[C@H](CCN)NC(=O)[C@@H](CC(C)C)NC(=O)[C@H](CCCN)NC(=O)[C@H](C(C)C)NC(=O)[C@H](Cc2ccc(-c3ccccc3)cc2)NC(=O)[C@H](CC(C)C)NC(=O)[C@H](Cc2c[nH]c3ccccc23)NC(=O)[C@H](CC(=O)O)NC(=O)[C@H](Cc2ccncc2)NC(=O)[C@H](Cc2ccc(OCC(=O)O)cc2)NC(=O)CSC[C@@H](C(=O)N[C@H](CCN)C(=O)NCCOCCOCC(=O)NCCCCCCCCCCC(=O)O)NC(=O)[C@H](CO)NC(=O)[C@H](C(C)C)CC1=O` [Compound 3072] ({CH2CO}-Y(Carboxymethyl)[4Pal]DWL[Bip]V[Orn][dL][Dab][X2]SC[dDab][AEEA][Aun]-OH; thioether N-13), the pIC50 is 7.87.

Take `CC(C)C[C@@H]1NC(=O)[C@H](CCN)NC(=O)[C@@H](CC(C)C)NC(=O)[C@H](CCN)NC(=O)[C@H](C(C)C)NC(=O)[C@H](Cc2ccc(-c3ccccc3)cc2)NC(=O)[C@H](CC(C)C)NC(=O)[C@H](Cc2c[nH]c3ccccc23)NC(=O)[C@H](CC(=O)O)NC(=O)[C@H](Cc2ccc(OCC(=O)O)cc2)NC(=O)[C@H](Cc2ccc(OCC(=O)O)cc2)NC(=O)CSC[C@@H](C(=O)N[C@H](CCCN)C(=O)NCCOCCOCC(=O)NCCCCCCCCCCC(=O)O)NC(=O)[C@H](CO)NC(=O)[C@H](C(C)C)CC1=O` [Compound 3073] ({CH2CO}-Y(Carboxymethyl)Y(Carboxymethyl)DWL[Bip]V[Dab][dL][Dab][X2]SC[dOrn][AEEA][Aun]-OH; thioether N-13): the pIC50 is 7.76.

Consider `CCC(C)[C@@H]1NC(=O)[C@H](Cc2ccc(-c3ccccc3)cc2)NC(=O)[C@H](CC(C)C)NC(=O)[C@H](Cc2c[nH]c3ccccc23)NC(=O)[C@H](CC(=O)O)NC(=O)[C@H](Cc2ccc(OCC(=O)O)cc2)NC(=O)[C@H]([C@H](C)O)NC(=O)CSC[C@@H](C(=O)NCCOCCOCC(=O)N[C@@H](CCCCN)C(=O)NCCCCCCCCCCC(=O)O)NC(=O)[C@H](CO)NC(=O)[C@H](C(C)C)NC(=O)[C@H](CC(C)C)NC(=O)[C@H](CCN)NC(=O)[C@@H](CC(C)C)NC(=O)[C@H](CCCN)NC1=O` (stereo partly drawn) [Compound 3081] ({CH2CO}-[aThr]Y(Carboxymethyl)DWL[Bip][Ile(3ξ)][Orn][dL][Dab]LVSC[AEEA]K[Aun]-OH; thioether N-14), for which the pIC50 was 7.68.
